# Experimental data published in patent US20260097047A1, “Small molecule inhibitors of the ribosome biogenesis factor NVL2” (Board of Regents, The University of Texas System, priority 2023, published 2026).
# System: HCT116 cells
# Test: Cell viability assay (CellTiter-Glo, 72 hours) in HCT116 human colorectal cancer cells
# Type: cell-based
# Details: Homo sapiens, HCT-116; Table 5; HCT116, 72 hours; read-out: Activity
# How it was run: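 2,000 cells/well adhered overnight, then compound added by digital dispenser with DMSO normalized to 0.5%. Viability read after 72 h at 37 °C by ATP-based CellTiter-Glo luminescence. IC50 from ten-point curves baseline-corrected to vehicle, five-parameter asymmetric least-squares fit.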
row,IC50,SMILES
1,< 500 nM,"CC#CCN1C(=O)c2ccccc2Sc2cc(Nc3ncnc(C#N)c3C)ccc21 [6-((10-(But-2-yn-1-yl)-11-oxo-10,11-dihydrodibenzo[b,f][1,4]thiazepin-7-yl)amino)-5-methylpyrimidine-4-carbonitrile]"
2,< 500 nM,"CC#CCN1C(=O)c2ccccc2Sc2cc(Nc3ccc(C#N)nn3)ccc21 [6-((10-(But-2-yn-1-yl)-11-oxo-10,11-dihydrodibenzo[b,f][1,4]thiazepin-7-yl)amino)pyridazine-3-carbonitrile]"
3,< 500 nM,"CC#CCN1C(=O)c2ccccc2Sc2cc(Nc3cc(C#N)ncn3)ccc21 [6-((10-(But-2-yn-1-yl)-11-oxo-10,11-dihydrodibenzo[b,f][1,4]thiazepin-7-yl)amino)pyrimidine-4-carbonitrile]"
4,< 500 nM,"CC#CCN1C(=O)c2ccc(F)cc2Sc2cc(Nc3ncccc3F)ccc21 [10-(But-2-yn-1-yl)-3-fluoro-7-((3-fluoropyridin-2-yl)amino)dibenzo[b,f][1,4]thiazepin-11 (10H)-one]"
5,500 to 1000 nM,"CC#CCN1C(=O)c2ccc(F)cc2Sc2cc(Nc3nccnc3OC)ccc21 [10-(But-2-yn-1-yl)-3-fluoro-7-((3-methoxypyrazin-2-yl)amino)dibenzo[b,f][1,4]thiazepin-11 (10H)-one]"
6,< 500 nM,"CC#CCN1C(=O)c2ccc(F)cc2Sc2cc(Nc3ncccc3OC)ccc21 [10-(But-2-yn-1-yl)-3-fluoro-7-((3-methoxypyridin-2-yl)amino)dibenzo[b,f][1,4]thiazepin-11 (10H)-one]"
7,< 500 nM,"CC#CCN1C(=O)c2ccc(F)cc2Sc2cc(Nc3nccnc3C)ccc21 [10-(But-2-yn-1-yl)-3-fluoro-7-((3-methylpyrazin-2-yl)amino)dibenzo[b,f][1,4]thiazepin-11 (10H)-one]"
8,< 500 nM,"CC#CCN1C(=O)c2ccc(F)cc2Sc2cc(Nc3ncccc3C)ccc21 [10-(But-2-yn-1-yl)-3-fluoro-7-((3-methylpyridin-2-yl)amino)dibenzo[b,f][1,4]thiazepin-11 (10H)-one]"
9,< 500 nM,"CC#CCN1C(=O)c2ccccc2Sc2cc(Nc3cnn(C)c3)ccc21 [10-(But-2-yn-1-yl)-7-((1-methyl-1H-pyrazol-4-yl)amino)dibenzo[b,f][1,4]thiazepin-11 (10H)-one]"
10,< 500 nM,"CC#CCN1C(=O)c2ccccc2Sc2cc(Nc3ncc(C)nc3C)ccc21 [10-(But-2-yn-1-yl)-7-((3,5-dimethylpyrazin-2-yl)amino)dibenzo[b,f][1,4]thiazepin-11 (10H)-one]"
11,< 500 nM,"CC#CCN1C(=O)c2ccccc2Sc2cc(Nc3ncc(C)cc3C)ccc21 [10-(But-2-yn-1-yl)-7-((3,5-dimethylpyridin-2-yl)amino)dibenzo[b,f][1,4]thiazepin-11 (10H)-one]"
12,< 500 nM,"CC#CCN1C(=O)c2ccc(C#N)cc2Sc2cc(Nc3nc(C)cnc3C)ccc21 [10-(But-2-yn-1-yl)-7-((3,6-dimethylpyrazin-2-yl)amino)-11-oxo-10,11-dihydrodibenzo[b,f][1,4]thiazepine-3-carbonitrile]"
13,< 500 nM,"CC#CCN1C(=O)c2ccccc2Sc2cc(Nc3nc(C)cnc3C)ccc21 [10-(But-2-yn-1-yl)-7-((3,6-dimethylpyrazin-2-yl)amino)dibenzo[b,f][1,4]thiazepin-11 (10H)-one]"
14,< 500 nM,"CC#CCN1C(=O)c2ccccc2Sc2cc(Nc3ncccc3C(F)(F)F)ccc21 [10-(But-2-yn-1-yl)-7-((3-(trifluoromethyl)pyridin-2-yl)amino)dibenzo[b,f][1,4]thiazepin-11 (10H)-one]"
15,< 500 nM,"CC#CCN1C(=O)c2ccc(F)cc2Sc2cc(Nc3ncccc3C3CC3)ccc21 [10-(But-2-yn-1-yl)-7-((3-cyclopropylpyridin-2-yl)amino)-3-fluorodibenzo[b,f][1,4]thiazepin-11 (10H)-one]"
16,< 500 nM,"C#Cc1cccnc1Nc1ccc2c(c1)Sc1ccccc1C(=O)N2CC#CC [10-(But-2-yn-1-yl)-7-((3-ethynylpyridin-2-yl)amino)dibenzo[b,f][1,4]thiazepin-11 (10H)-one]"

row,IC50,SMILES
1,< 500 nM,"CC#CCN1C(=O)c2ccccc2Sc2cc(Nc3nccc(C)c3F)ccc21 [10-(But-2-yn-1-yl)-7-((3-fluoro-4-methylpyridin-2-yl)amino)dibenzo[b,f][1,4]thiazepin-11 (10H)-one]"
2,< 500 nM,"CC#CCN1C(=O)c2ccccc2Sc2cc(Nc3ncc(C)cc3F)ccc21 [10-(But-2-yn-1-yl)-7-((3-fluoro-5-methylpyridin-2-yl)amino)dibenzo[b,f][1,4]thiazepin-11 (10H)-one]"
3,< 500 nM,"CC#CCN1C(=O)c2ccccc2Sc2cc(Nc3nc(C)ccc3F)ccc21 [10-(But-2-yn-1-yl)-7-((3-fluoro-6-methylpyridin-2-yl)amino)dibenzo[b,f][1,4]thiazepin-11 (10H)-one]"
4,< 500 nM,"CC#CCN1C(=O)c2ccccc2Sc2cc(Nc3nccc(-c4cccnc4)n3)ccc21 [10-(But-2-yn-1-yl)-7-((4-(pyridin-3-yl)pyrimidin-2-yl)amino)dibenzo[b,f][1,4]thiazepin-11 (10H)-one]"
5,1000 to 5000 nM,"CC#CCN1C(=O)c2ccccc2Sc2cc(Nc3ncnc(Cl)n3)ccc21 [10-(But-2-yn-1-yl)-7-((4-chloro-1,3,5-triazin-2-yl)amino)dibenzo[b,f][1,4]thiazepin-11 (10H)-one]"
6,< 500 nM,"CC#CCN1C(=O)c2ccc(C#N)cc2Sc2cc(Nc3nccc(C#N)c3C)ccc21 [10-(But-2-yn-1-yl)-7-((4-cyano-3-methylpyridin-2-yl)amino)-11-oxo-10,11-dihydrodibenzo[b,f][1,4]thiazepine-3-carbonitrile]"
7,< 500 nM,"CC#CCN1C(=O)c2ccc(C#N)cc2Sc2cc(Nc3nnccc3C#N)ccc21 [10-(But-2-yn-1-yl)-7-((4-cyanopyridazin-3-yl)amino)-11-oxo-10,11-dihydrodibenzo[b,f][1,4]thiazepine-3-carbonitrile]"
8,< 500 nM,"CC#CCN1C(=O)c2ccccc2Sc2cc(Nc3nnccc3C)ccc21 [10-(But-2-yn-1-yl)-7-((4-methylpyridazin-3-yl)amino)dibenzo[b,f][1,4]thiazepin-11 (10H)-one]"
9,< 500 nM,"CC#CCN1C(=O)c2ccc(C#N)cc2Sc2cc(Nc3ncc(C#N)cc3C)ccc21 [10-(But-2-yn-1-yl)-7-((5-cyano-3-methylpyridin-2-yl)amino)-11-oxo-10,11-dihydrodibenzo[b,f][1,4]thiazepine-3-carbonitrile]"
10,< 500 nM,"CC#CCN1C(=O)c2ccccc2Sc2cc(Nc3cc(C)cnn3)ccc21 [10-(But-2-yn-1-yl)-7-((5-methylpyridazin-3-yl)amino)dibenzo[b,f][1,4]thiazepin-11 (10H)-one]"
11,< 500 nM,"CC#CCN1C(=O)c2ccccc2Sc2cc(Nc3ccc(C)nn3)ccc21 [10-(But-2-yn-1-yl)-7-((6-methylpyridazin-3-yl)amino)dibenzo[b,f][1,4]thiazepin-11 (10H)-one]"
12,< 500 nM,"CC#CCN1C(=O)c2ccccc2Sc2cc(Nc3cccnn3)ccc21 [10-(But-2-yn-1-yl)-7-(pyridazin-3-ylamino)dibenzo[b,f][1,4]thiazepin-11 (10H)-one]"
13,< 500 nM,"CC#CCN1C(=O)c2ccccc2Sc2cc(Nc3ccnnc3)ccc21 [10-(But-2-yn-1-yl)-7-(pyridazin-4-ylamino)dibenzo[b,f][1,4]thiazepin-11 (10H)-one]"
14,< 500 nM,"CC#CCN1C(=O)c2ccccc2Sc2cc(Nc3ccccn3)ccc21 [10-(But-2-yn-1-yl)-7-(pyridin-2-ylamino)dibenzo[b,f][1,4]thiazepin-11 (10H)-one]"
15,< 500 nM,"CC#CCN1C(=O)c2ccccc2Sc2cc(Nc3cccnc3)ccc21 [10-(But-2-yn-1-yl)-7-(pyridin-3-ylamino)dibenzo[b,f][1,4]thiazepin-11 (10H)-one]"
16,< 500 nM,"CC#CCN1C(=O)c2ccccc2Sc2cc(Nc3ccncc3)ccc21 [10-(But-2-yn-1-yl)-7-(pyridin-4-ylamino)dibenzo[b,f][1,4]thiazepin-11 (10H)-one]"

# Same assay, conditions: Homo sapiens, HCT-116; Table 6; HCT116, 72 hours; read-out: Activity
row,IC50,SMILES
1,< 500 nM,"CC#CCN1C(=O)c2ccccc2Sc2cc(NC3CC4(COC4)C3)ccc21 [7-((2-Oxaspiro[3.3]heptan-6-yl)amino)-10-(but-2-yn-1-yl)dibenzo[b,f][1,4]thiazepin-11 (10H)-one]"
2,< 500 nM,"CC#CCN1C(=O)c2ccccc2Sc2cc(NC3CC4CCC3C4)ccc21 (centres unmarked) [7-(Bicyclo[2.2.1]heptan-2-ylamino)-10-(but-2-yn-1-yl)dibenzo[b,f][1,4]thiazepin-11 (10H)-one]"
3,< 500 nM,"CC#CCN1C(=O)c2ccccc2Sc2cc(NC3CCOC3C)ccc21 (centres unmarked) [10-(But-2-yn-1-yl)-7-((2-methyltetrahydrofuran-3-yl)amino)dibenzo[b,f][1,4]thiazepin-11 (10H)-one]"
4,< 500 nM,"CC#CCN1C(=O)c2ccccc2Sc2cc(NC3COCC3OC)ccc21 (centres unmarked) [10-(But-2-yn-1-yl)-7-((4-methoxytetrahydrofuran-3-yl)amino)dibenzo[b,f][1,4]thiazepin-11 (10H)-one]"
5,< 500 nM,"CC#CCN1C(=O)c2ccccc2Sc2cc(NC3COCC3C)ccc21 (centres unmarked) [10-(But-2-yn-1-yl)-7-((4-methyltetrahydrofuran-3-yl)amino)dibenzo[b,f][1,4]thiazepin-11 (10H)-one]"
6,< 500 nM,"CC#CCN1C(=O)c2ccccc2Sc2cc(NCC3(C)COC3)ccc21 [10-(But-2-yn-1-yl)-7-(((3-methyloxetan-3-yl)methyl)amino)dibenzo[b,f][1,4]thiazepin-11 (10H)-one]"
7,1000 to 5000 nM,"CC#CCN1C(=O)c2ccccc2Sc2cc(NCC3COC3)ccc21 [10-(But-2-yn-1-yl)-7-((oxetan-3-ylmethyl)amino)dibenzo[b,f][1,4]thiazepin-11 (10H)-one]"
8,< 500 nM,"CC#CCN1C(=O)c2ccccc2Sc2cc(NC3CCCOC3)ccc21 (centres unmarked) [10-(But-2-yn-1-yl)-7-((tetrahydro-2H-pyran-3-yl)amino)dibenzo[b,f][1,4]thiazepin-11 (10H)-one]"
9,< 500 nM,"CC#CCN1C(=O)c2ccccc2Sc2cc(NC3CCOC3)ccc21 (centres unmarked) [10-(But-2-yn-1-yl)-7-((tetrahydrofuran-3-yl)amino)dibenzo[b,f][1,4]thiazepin-11 (10H)-one]"
